Source: patent US9820937B2, “Pharmaceutical composition formulated for pre-gastric absorption of monoamine oxidase B inhibitors” (R.P. Scherer Technologies, LLC, priority 1997, dated 2017)

Target: T1, MAO-B (Homo sapiens, UniProt P27338)
T1 construct: from tissue; host or cells: whole body of living study subjects (in vivo); no isolated enzyme
T1 sequence (P27338 1-520): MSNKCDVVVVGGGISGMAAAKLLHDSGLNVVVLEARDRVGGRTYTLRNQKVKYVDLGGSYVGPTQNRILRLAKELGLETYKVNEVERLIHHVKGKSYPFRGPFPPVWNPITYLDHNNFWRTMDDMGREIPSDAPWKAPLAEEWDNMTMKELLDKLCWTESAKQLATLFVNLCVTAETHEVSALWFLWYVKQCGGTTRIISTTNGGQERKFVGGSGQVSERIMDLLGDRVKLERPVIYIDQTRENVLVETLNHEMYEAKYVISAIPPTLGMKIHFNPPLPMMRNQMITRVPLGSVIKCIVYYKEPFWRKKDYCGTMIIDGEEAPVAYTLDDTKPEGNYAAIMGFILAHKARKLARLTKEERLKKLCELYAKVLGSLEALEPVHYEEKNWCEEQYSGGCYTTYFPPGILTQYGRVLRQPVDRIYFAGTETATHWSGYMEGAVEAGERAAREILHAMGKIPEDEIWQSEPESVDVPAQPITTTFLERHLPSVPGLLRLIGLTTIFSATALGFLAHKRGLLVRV
Type: in vivo
Details: four pharmacokinetic studies

C#CCN[C@H](C)Cc1ccccc1 [N-desmethylselegiline]
correlation of Log 10 plasma AUC with 24 hour cumulative urinary excretion of phenethylamine: no significant correlation
